Assay results published in patent publication US20090306454A1, “Devices and Methods for Stimulation of Tissue” (Stanford University, priority 2005, published 2009).

Tests used:
[1] = system: denervated orbicularis oculi; assay: Ach stimulation in the denervated rabbit model (Miochol-E injected into orbicularis oculi pocket); assay type: in vivo; design: key to eyelid response to Ach delivered: N = no response; C = complete eyelid closure
Description: a) Two white New Zealand female rabbits were anesthetized by using 3-5% isofluorane inhalation and ketamine/xylazine and monitored by Heska monitor (SP02, heart rate, and rectal temperature). b) A pre-auricular incision was made the facial nerve was surgically sectioned and a five millimeter section was eliminated.
To determine the response of denervated orbicularis oculi in rabbits to stimulation with varying dosages of Miochol-E (acetylcholine chloride, injectable, Novartis pharmaceuticals) the FDA approved Miochol-E in 10 mg/ml, or 0.055M Ach (molar mass of 182 g/mol) was used to test the effects in the denervated rabbit model.
Methods: The rabbit was sedated in standard fashion, an eyelid incision was made 5 mm from the lash line and the Miochol E was injected into the orbicularis oculi pocket. Retesting was done at six weeks.

[2] = system: right denervated orbicularis oculi; assay: Synergistic action of electric stimulation and Ach on denervated orbicularis oculi; assay type: in vivo, rabbit
Description: A possible synergistic interaction between Ach and electric stimulation were observed as follows. After having injected an amount of Ach into the right denervated orbicularis oculi that produced no reaction, electric stimulation was delivered to the muscle at an intensity previously unable to produce a definitive blink.
In a subsequent test session, the right denervated orbicularis was first tested using electrical stimulation alone (prior to any Ach testing) as shown in Table III.
After the delivery of 200 ul of Ach to the right denervated orbicularis oculi, the right orbicularis oculi was allowed to relax to baseline position prior to Ach stimulation. No saline flush was performed. Electric stimulation was given at 10 msec phase duration at 3 volts.

[3] = Chemical stability of Ach at body temperature (37 C, HPLC with UV detection); assay type: physicochemical
Description: To determine the stability of acetylcholine at 37 C to help guide the reservoir sizes and locations, aliquots of reference acetylcholine and standard strength Miochol-E (acetylcholine, injectable, Novartis Pharmaceuticals) were stored in sterile glass containers at 37 C.

[4] = Full Strength Ach (10 mg/ml), 200 μl, denervated rabbit orbicularis oculi

Compound: CC(=O)OCC[N+](C)(C)C.[Cl-] [Ach, acetylcholine chloride]
- muscle contraction / eyelid closure (conclusion from experiments) ([1]; Ach delivered to the orbicularis in a diffuse fashion, at certain concentrations and volumes): tonic, prolonged closure
- eyelid response to Ach delivered ([1]; Ach dilution 1:1, 0.5 μl, denervated rabbit orbicularis oculi): N
- eyelid response to Ach delivered ([1]; Ach dilution 1:1, 1 μl, denervated rabbit orbicularis oculi): N
- eyelid response to Ach delivered ([1]; Ach dilution 1:1, 5 μl, denervated rabbit orbicularis oculi): N
- eyelid response to Ach delivered ([1]; Ach dilution 1:1, 10 μl, denervated rabbit orbicularis oculi): N
- eyelid response to Ach delivered ([1]; Ach dilution 1:1, 25 μl, denervated rabbit orbicularis oculi): N
- eyelid response to Ach delivered ([1]; Ach dilution 1:1, 50 μl, denervated rabbit orbicularis oculi): N
- eyelid response to Ach delivered ([1]; Ach dilution 1:1, 100 μl, denervated rabbit orbicularis oculi): N
- eyelid response to Ach delivered ([1]; Ach dilution 1:2, 0.5 μl, denervated rabbit orbicularis oculi): N
- eyelid response to Ach delivered ([1]; Ach dilution 1:2, 1 μl, denervated rabbit orbicularis oculi): N
- eyelid response to Ach delivered ([1]; Ach dilution 1:2, 5 μl, denervated rabbit orbicularis oculi): N
- eyelid response to Ach delivered ([1]; Ach dilution 1:2, 10 μl, denervated rabbit orbicularis oculi): N
- eyelid response to Ach delivered ([1]; Ach dilution 1:2, 25 μl, denervated rabbit orbicularis oculi): N
- eyelid response to Ach delivered ([1]; Ach dilution 1:2, 50 μl, denervated rabbit orbicularis oculi): N
- eyelid response to Ach delivered ([1]; Ach dilution 1:2, 100 μl, denervated rabbit orbicularis oculi): N
- eyelid response to Ach delivered ([1]; Ach dilution 1:5, 0.5 μl, denervated rabbit orbicularis oculi): N
- eyelid response to Ach delivered ([1]; Ach dilution 1:5, 1 μl, denervated rabbit orbicularis oculi): N
- eyelid response to Ach delivered ([1]; Ach dilution 1:5, 5 μl, denervated rabbit orbicularis oculi): N
- eyelid response to Ach delivered ([1]; Ach dilution 1:5, 10 μl, denervated rabbit orbicularis oculi): N
- eyelid response to Ach delivered ([1]; Ach dilution 1:5, 25 μl, denervated rabbit orbicularis oculi): N
- eyelid response to Ach delivered ([1]; Ach dilution 1:5, 50 μl, denervated rabbit orbicularis oculi): N
- eyelid response to Ach delivered ([1]; Ach dilution 1:5, 100 μl, denervated rabbit orbicularis oculi): N
- eyelid response to Ach delivered ([1]; Ach dilution 1:10, 0.5 μl, denervated rabbit orbicularis oculi): N
- eyelid response to Ach delivered ([1]; Ach dilution 1:10, 1 μl, denervated rabbit orbicularis oculi): N
- eyelid response to Ach delivered ([1]; Ach dilution 1:10, 5 μl, denervated rabbit orbicularis oculi): N
- eyelid response to Ach delivered ([1]; Ach dilution 1:10, 10 μl, denervated rabbit orbicularis oculi): N
- eyelid response to Ach delivered ([1]; Ach dilution 1:10, 25 μl, denervated rabbit orbicularis oculi): N
- eyelid response to Ach delivered ([1]; Ach dilution 1:10, 50 μl, denervated rabbit orbicularis oculi): N
- eyelid response to Ach delivered ([1]; Ach dilution 1:10, 100 μl, denervated rabbit orbicularis oculi): N
- eyelid response to Ach delivered ([1]; Full Strength Ach (10 mg/ml), 0.5 μl, denervated rabbit orbicularis oculi): N
- eyelid response to Ach delivered ([1]; Full Strength Ach (10 mg/ml), 1 μl, denervated rabbit orbicularis oculi): N
- eyelid response to Ach delivered ([1]; Full Strength Ach (10 mg/ml), 5 μl, denervated rabbit orbicularis oculi): N
- eyelid response to Ach delivered ([1]; Full Strength Ach (10 mg/ml), 10 μl, denervated rabbit orbicularis oculi): N
- eyelid response to Ach delivered ([1]; Full Strength Ach (10 mg/ml), 25 μl, denervated rabbit orbicularis oculi): N
- eyelid response to Ach delivered ([1]; Full Strength Ach (10 mg/ml), 50 μl, denervated rabbit orbicularis oculi): N
- eyelid response to Ach delivered ([1]; Full Strength Ach (10 mg/ml), 100 μl, denervated rabbit orbicularis oculi): N
- duration of complete eyelid closure [1, 4]: 1 min
- eyelid response to Ach delivered [1, 4]: C
- eyelid response to electric stimulation after Ach delivery ([2]; after 200 ul of Ach, muscle relaxed to baseline, no saline flush, electric stimulation 10 msec phase duration at 3 volts): Reproducible complete closure blinks
- eyelid reaction to injected Ach alone ([2]; an amount of Ach injected into the right denervated orbicularis oculi, before electric stimulation): no reaction
- eyelid response to electric stimulation after Ach injection ([2]; electric stimulation at an intensity previously unable to produce a definitive blink, after Ach amount that produced no reaction, over three stimulated partial blink motions): closed tightly for four minutes
- stability at body temperature ([3]; 14 days in sterile glass at 37 C): stable
- Peak Area (Ach concentration by HPLC-UV) ([3]; after storage at 37 C for 14 days in sterile glass): 56494
